Key:
Test in all cases: relative viability (nuclei count vs DMSO), 5 days (fraction); higher = more cells survive
ChaGo-K-1 = tested on: ChaGo-K-1
How it was run: (§1)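 Relative viability divides the nuclei count in treated wells by that in vehicle wells. Lung cancer cell lines were seeded in 1536-well plates, dosed by pin tool the next day, and fixed and stained after 5 days in one step with final 0.05% Triton X-100, 1% formaldehyde and 1 ug/ml Hoechst. Dosing was a single drug or a fixed anchor-drug dose plus five library-drug doses (not always all listed) in √10 steps, and values are medians of duplicate plates imaged at 4×.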

EMC-BAC-2 = tested on: EMC-BAC-2
How it was run: as §1

EPLC-272H = tested on: EPLC-272H
How it was run: as §1

H3255 = tested on: H3255
How it was run: as §1

HCC-44 = tested on: HCC-44
How it was run: as §1

HCC-827 = tested on: HCC-827
How it was run: as §1

LCLC-103H = tested on: LCLC-103H
How it was run: as §1

LCLC-97TM1 = tested on: LCLC-97TM1
How it was run: as §1

NCI-H1355 = tested on: NCI-H1355
How it was run: as §1

NCI-H1395 = tested on: NCI-H1395
How it was run: as §1

NCI-H1563 = tested on: NCI-H1563
How it was run: as §1

NCI-H1651 = tested on: NCI-H1651
How it was run: as §1

NCI-H1793 = tested on: NCI-H1793
How it was run: as §1

NCI-H1944 = tested on: NCI-H1944
How it was run: as §1

NCI-H2023 = tested on: NCI-H2023
How it was run: as §1

NCI-H2085 = tested on: NCI-H2085
How it was run: as §1

NCI-H2087 = tested on: NCI-H2087
How it was run: as §1

NCI-H2405 = tested on: NCI-H2405
How it was run: as §1

NCI-H322M = tested on: NCI-H322M
How it was run: as §1

NCI-H520 = tested on: NCI-H520
How it was run: as §1

NCI-H650 = tested on: NCI-H650
How it was run: as §1

SK-MES-1 = tested on: SK-MES-1
How it was run: as §1

UMC-11 = tested on: UMC-11
How it was run: as §1

Structure (SMILES): O=C(O)c1ccc(-c2c[nH]c3ncc(-c4ccccc4)cc23)cc1C1CCCC1 + COc1cccc2cc(-c3nc([C@H]4CC[C@H](C(=O)O)CC4)n4ncnc(N)c34)[nH]c12 [OSI-027] (partner 0.5 µM)
- relative viability (ChaGo-K-1; first compound 0.04 µM): 0.651
- relative viability (ChaGo-K-1; first compound 0.1265 µM): 0.595
- relative viability (ChaGo-K-1; first compound 0.4 µM): 0.532
- relative viability (ChaGo-K-1; first compound 1.265 µM): 0.51
- relative viability (EMC-BAC-2; first compound 0.04 µM): 0.401
- relative viability (EMC-BAC-2; first compound 0.1265 µM): 0.388
- relative viability (EMC-BAC-2; first compound 0.4 µM): 0.39
- relative viability (EMC-BAC-2; first compound 1.265 µM): 0.365
- relative viability (EPLC-272H; first compound 0.04 µM): 0.266
- relative viability (EPLC-272H; first compound 0.1265 µM): 0.283
- relative viability (EPLC-272H; first compound 0.4 µM): 0.292
- relative viability (EPLC-272H; first compound 1.265 µM): 0.281
- relative viability (H3255; first compound 0.04 µM): 0.671
- relative viability (H3255; first compound 0.1265 µM): 0.662
- relative viability (H3255; first compound 0.4 µM): 0.554
- relative viability (H3255; first compound 1.265 µM): 0.506
- relative viability (HCC-44; first compound 0.04 µM): 0.512
- relative viability (HCC-44; first compound 0.1265 µM): 0.505
- relative viability (HCC-44; first compound 0.4 µM): 0.594
- relative viability (HCC-44; first compound 1.265 µM): 0.484
- relative viability (HCC-827; first compound 0.04 µM): 0.65
- relative viability (HCC-827; first compound 0.1265 µM): 0.81
- relative viability (HCC-827; first compound 0.4 µM): 0.725
- relative viability (HCC-827; first compound 1.265 µM): 0.77
- relative viability (LCLC-103H; first compound 0.04 µM): 0.444
- relative viability (LCLC-103H; first compound 0.1265 µM): 0.554
- relative viability (LCLC-103H; first compound 0.4 µM): 0.389
- relative viability (LCLC-103H; first compound 1.265 µM): 0.452
- relative viability (LCLC-97TM1; first compound 0.04 µM): 0.474
- relative viability (LCLC-97TM1; first compound 0.1265 µM): 0.659
- relative viability (LCLC-97TM1; first compound 0.4 µM): 0.518
- relative viability (LCLC-97TM1; first compound 1.265 µM): 0.526
- relative viability (NCI-H1355; first compound 0.04 µM): 0.43
- relative viability (NCI-H1355; first compound 0.1265 µM): 0.47
- relative viability (NCI-H1355; first compound 0.4 µM): 0.371
- relative viability (NCI-H1355; first compound 1.265 µM): 0.379
- relative viability (NCI-H1395; first compound 0.04 µM): 0.627
- relative viability (NCI-H1395; first compound 0.1265 µM): 0.773
- relative viability (NCI-H1395; first compound 0.4 µM): 0.516
- relative viability (NCI-H1395; first compound 1.265 µM): 0.537
- relative viability (NCI-H1563; first compound 0.04 µM): 0.72
- relative viability (NCI-H1563; first compound 0.1265 µM): 0.753
- relative viability (NCI-H1563; first compound 0.4 µM): 0.783
- relative viability (NCI-H1563; first compound 1.265 µM): 0.798
- relative viability (NCI-H1651; first compound 0.04 µM): 0.659
- relative viability (NCI-H1651; first compound 0.1265 µM): 0.715
- relative viability (NCI-H1651; first compound 0.4 µM): 0.67
- relative viability (NCI-H1651; first compound 1.265 µM): 0.583
- relative viability (NCI-H1793; first compound 0.04 µM): 0.312
- relative viability (NCI-H1793; first compound 0.1265 µM): 0.362
- relative viability (NCI-H1793; first compound 0.4 µM): 0.288
- relative viability (NCI-H1793; first compound 1.265 µM): 0.283
- relative viability (NCI-H1944; first compound 0.04 µM): 0.429
- relative viability (NCI-H1944; first compound 0.1265 µM): 0.428
- relative viability (NCI-H1944; first compound 0.4 µM): 0.345
- relative viability (NCI-H1944; first compound 1.265 µM): 0.39
- relative viability (NCI-H2023; first compound 0.04 µM): 0.516
- relative viability (NCI-H2023; first compound 0.1265 µM): 0.572
- relative viability (NCI-H2023; first compound 0.4 µM): 0.41
- relative viability (NCI-H2023; first compound 1.265 µM): 0.319
- relative viability (NCI-H2085; first compound 0.04 µM): 0.867
- relative viability (NCI-H2085; first compound 0.1265 µM): 0.761
- relative viability (NCI-H2085; first compound 0.4 µM): 0.73
- relative viability (NCI-H2085; first compound 1.265 µM): 0.554
- relative viability (NCI-H2087; first compound 0.04 µM): 0.563
- relative viability (NCI-H2087; first compound 0.1265 µM): 0.673
- relative viability (NCI-H2087; first compound 0.4 µM): 0.416
- relative viability (NCI-H2087; first compound 1.265 µM): 0.47
- relative viability (NCI-H2405; first compound 0.04 µM): 0.653
- relative viability (NCI-H2405; first compound 0.1265 µM): 0.626
- relative viability (NCI-H2405; first compound 0.4 µM): 0.617
- relative viability (NCI-H2405; first compound 1.265 µM): 0.605
- relative viability (NCI-H322M; first compound 0.04 µM): 0.546
- relative viability (NCI-H322M; first compound 0.1265 µM): 0.588
- relative viability (NCI-H322M; first compound 0.4 µM): 0.674
- relative viability (NCI-H322M; first compound 1.265 µM): 0.521
- relative viability (NCI-H520; first compound 0.04 µM): 0.23
- relative viability (NCI-H520; first compound 0.1265 µM): 0.269
- relative viability (NCI-H520; first compound 0.4 µM): 0.336
- relative viability (NCI-H520; first compound 1.265 µM): 0.242
- relative viability (NCI-H650; first compound 0.04 µM): 0.522
- relative viability (NCI-H650; first compound 0.1265 µM): 0.6
- relative viability (NCI-H650; first compound 0.4 µM): 0.485
- relative viability (NCI-H650; first compound 1.265 µM): 0.457
- relative viability (SK-MES-1; first compound 0.04 µM): 0.647
- relative viability (SK-MES-1; first compound 0.1265 µM): 0.648
- relative viability (SK-MES-1; first compound 0.4 µM): 0.622
- relative viability (SK-MES-1; first compound 1.265 µM): 0.41
- relative viability (UMC-11; first compound 0.04 µM): 0.482
- relative viability (UMC-11; first compound 0.1265 µM): 0.547
- relative viability (UMC-11; first compound 0.4 µM): 0.46
- relative viability (UMC-11; first compound 1.265 µM): 0.375
